Results reported in paper PMC8333425, “Discovery of a dual Ras and ARF6 inhibitor from a GPCR endocytosis screen” (Nature Communications, 2021).
Values joined by “and” are separate entries in the source; they are usually repeats but may differ in a detail not shown here. Equal entries are not always repeated.

Assays:
A549 cells = test: Cell viability assay (MTT), A549; assay type: cell-based, human
Procedure: MDA-MB-231 breast cancer cells and A549 lung carcinomas (1500 cells in 150 μl/well) were seeded overnight on a clear 96-well plate. Twenty-four hours later, the cells were treated with 0.1% DMSO, or different concentrations of Rasarfin (as indicated), or 10 µM of 21.4, 21.8 (MDA-MB-231 breast cancer cells) or Doxorubicin for the indicated times at 37 °C. At each time point, 10 μl of 5 mg/ml MTT was added to each well and the plates were incubated for an additional 4 h at 37 °C. The absorbance at 590 nm was measured by plate reader. Experiments were done in triplicate and repeated three times.

[1] = target: T1, K-Ras Y32A, Y40A, Y32A/Y40A (Homo sapiens, UniProt P01116, Y32A); test: Ras BRET sensor in cells overexpressing K-Ras mutants (Y32A, Y40A, Y32A/Y40A) and AT1R; assay type: cell-based; settings: Rasarfin 50 μM, K-Ras Y32A
T1 construct: expressed in transfected cells; host or cells: HEK293SL
Description: (§1) Because Tyr32 and Tyr40, located on the switch I domain of Ras, are critical for stabilizing Rasarfin binding through interactions with both the chlorine and isopropyl moiety (Fig. 7a, c), we reasoned that substituting them for Ala residues would negatively impact Rasarfin’s inhibitory action on Ras. […] Because we wanted to assess the inhibitory action of Rasarfin over different Ras subtypes, we mutated the two tyrosine residues to an alanine in K-Ras (Y32A, Y40A, and Y32A/Y40A mutants) within the same Rasarfin binding site found in H-Ras (Lys^5-Thr^74). This domain and residues are perfectly conserved among the Ras family members[44],[45]. WT K-Ras and K-Ras mutants were overexpressed along with AT1R in cells and AngII-mediated activation of Ras was assessed using the Ras BRET sensor (Supplementary Fig. 11a).
(§2) HEK293SL cells were seeded at a density of 7.5 × 10^5 cells per 100-mm dish and 24 h later, transiently transfected as such. For receptor internalization experiments, cells were transfected with 0.12 μg AT1R-RlucII, B2R-RlucII, or β2AR-RlucII and 0.48 μg of either rGFP-CAAX (to assess removal from the PM) or rGFP-FYVE (to assess accumulation in the endosomes). For β-arrestin recruitment assays, cells were transfected with 0.48 μg of receptor-YFP along with 0.12 μg of β-arrestin-RlucII. For β-arrestin/AP-2 binding experiments, cells were transfected with 1 μg Flag-AT1R, 1 μg β2-Adaptin-YFP, and 0.12 μg β-arrestin2-RlucII. For G protein activation, cells were transfected with 3 μg of sp-Flag-AT1R along with either 4.5 μg of the Gαq-polycistronic BRET sensor or 0.24 μg of the Gαi3-RlucII and 0.6 μg of GFP10-Gγ2 and Gβ1 sensors or 0.12 μg PKN-RBD-RlucII and 0.48 μg of rGFP-CAAX. For PKC activation, cells were transfected with 3 μg of sp-Flag-AT1R and 0.18 μg of the PKC sensor. For GTPase activation experiments, cells were transfected with 1 μg Flag-AT1R, 0.48 μg of rGFP-CAAX, and either 0.12 μg of GGA3-PBD-RlucII, PAK-CRIB-RlucII or Raf-RBD-RlucII. For biosensor validation experiments, cells were additionally transfected with 500 ng Flag-K-Ras-WT, Flag-K-Ras-G12V, Flag-K-Ras-SOS-CAAX, HA-ARF6-WT, HA-ARF6-T27N, Myc-Rac1-WT, Myc-Rac1-Q61L or Myc-Rac1-T17N. For PI3K/Akt activation experiments, cells were transfected with 0.48 μg of rGFP-CAAX and 0.12 μg of Akt (PH)-RlucII. After 18 h of transfection, the media was replaced and cells were divided for subsequent experiments. Cells were detached and seeded onto poly-L-ornithine-coated 96-well flat white bottom plates (BrandTech Scientific) at a density of 2.5 × 10^4 cells per well in media. The next day, cells were washed once with Tyrode’s buffer (140 mM NaCl, 2.7 mM KCl, 1 mM CaCl2, 12 mM NaHCO3, 5.6 mM D-glucose, 0.5 mM MgCl2, 0.37 mM NaH2PO4, 25 mM HEPES, pH 7.4) and left in Tyrode’s buffer. For kinetics of β-arrestin recruitment or β-arrestin binding to receptor and AP-2 experiments, cells were serum starved for 30 min, pretreated with 21 (50 µM) or Barbadin (100 µM) for 30 min, stimulated with 100 nM AngII or 1 µM BK and BRET signals were monitored at indicated times using a Victor X Light plate reader (PerkinElmer). Coelenterazine H (final concentration of 5 µM) was added 3–5 min prior to BRET measurements. Filter set was 460/80 nm and 535/30 nm for detecting the RlucII Renilla luciferase (donor) and YFP (acceptor) light emissions, respectively. The BRET ratio was determined by calculating the ratio of the light emitted by YFP over the light emitted by the RlucII. For G protein activation, cells were serum starved, pretreated with compounds for 30 min, stimulated with 100 nM AngII for 2 min (Gαq, Gαi3, and Rho sensors) or 5 min (PKC sensor). For the kinetics of GTPase and PI3K/Akt activation, cells were serum starved, pretreated with 21 (50 µM) or Wortmannin (200 nM) for 30 min, stimulated with ligand (100 nM AngII or 100 ng/ml EGF) and BRET signals were monitored at indicated times. […]

[2] = tested on: K-Ras Y32A, Y40A, Y32A/Y40A; test: as above; assay type: cell-based, human; settings: 50 μM
Description: as §1, §2

[3] = target: T2, K-Ras Y32A, Y40A, Y32A/Y40A (Homo sapiens, UniProt P01116, Y40A); test: as above; assay type: cell-based; settings: Rasarfin 50 μM, K-Ras Y40A
T2 construct: expressed in transfected cells; host or cells: HEK293SL
Description: as §1, §2

[4] = target: T3, K-Ras Y32A, Y40A, Y32A/Y40A (Homo sapiens, UniProt P01116, Y32A/Y40A); test: as above; assay type: cell-based; settings: Rasarfin 50 μM, K-Ras Y32A/Y40A, Bonferroni's multiple comparisons test
T3 construct: expressed in transfected cells; host or cells: HEK293SL
Description: as §1, §2

EGFR = test: BRET concentration-response, EGFR of Fig1d source data; assay type: cell-based, human
[5] = Bonferroni's multiple comparisons test

CC(C)C(=O)N1CCN(c2ccc(NC(=O)c3cc4ccccc4o3)cc2Cl)CC1 [Compound 21]
A549 cell viability (MTT), compared with MDA-MB-231 cells (A549 cells; 10 µM of Rasarfin): more important cell viability effects
cell viability (MTT signal) (A549 cells; Rasarfin 0.5, 24h): 0.2876 and 0.2844 and 0.2473 and 0.4073 and 0.3734 and 0.2713
cell viability (MTT signal) (A549 cells; Rasarfin 1, 24h): 0.2899 and 0.2749 and 0.2483 and 0.4128 and 0.3694 and 0.3709
cell viability (MTT signal) (A549 cells; Rasarfin 2, 24h): 0.2852 and 0.2865 and 0.2518 and 0.3946 and 0.3796 and 0.386
cell viability (MTT signal) (A549 cells; Rasarfin 5, 24h): 0.2638 and 0.2592 and 0.2504 and 0.3187 and 0.2743 and 0.3116
cell viability (MTT signal) (A549 cells; Rasarfin 10, 24h): 0.2447 and 0.2619 and 0.2276 and 0.2701 and 0.2102 and 0.246
cell viability (MTT signal) (A549 cells; Rasarfin 10, 72h): 0.3944 and 0.2496 and 0.4081 and 0.2999 and 0.3697 and 0.3945
AngII-promoted BRET [1]: 0.1037 and 0.088 and 0.0995 and 0.056
AngII-promoted BRET, Mean Diff. DMSO - Rasarfin [1, 5]: 0.006083
AngII-mediated activation of K-Ras Y32A, Y40A, Y32A/Y40A mutants (Ras BRET sensor) [2]: only WT was significantly inhibited by Rasarfin
AngII-promoted BRET [3]: 0.072 and 0.05667 and 0.08167 and 0.04433
AngII-promoted BRET, Mean Diff. DMSO - Rasarfin [3, 5]: 0.011
AngII-promoted BRET, Mean Diff. DMSO - Rasarfin [4]: 0.004167
EGFR, ligand-promoted BRET (Mean) (EGFR; Log [Comp21] (M) -4.3): 103.469 percent compared to DMSO
EGFR, ligand-promoted BRET (Mean) (EGFR; Log [Comp21] (M) -4.6): 97.8054 percent compared to DMSO
EGFR, ligand-promoted BRET (Mean) (EGFR; Log [Comp21] (M) -5): 87.6772 percent compared to DMSO
EGFR, ligand-promoted BRET (Mean) (EGFR; Log [Comp21] (M) -5.3): 105.328 percent compared to DMSO
EGFR, ligand-promoted BRET (Mean) (EGFR; Log [Comp 21] (M) -6): 96.2669 percent compared to DMSO
EGFR, ligand-promoted BRET (Mean) (EGFR; Log [Comp21] (M) -6.3): 100.826 percent compared to DMSO
EGFR, ligand-promoted BRET (Mean) (EGFR; Log [Comp 21] (M) -7): 105.279 percent compared to DMSO
